The structures appear in SMILES notation. ≈ marks a conversion by molar mass, not a printed value. Where two headings read alike, the source gives them in different places. Where only a bound is given, the exact number is not on record here.

One assay deals with H. pylori TrxR (Helicobacter pylori, UniProt P56431). The assay is described as follows: H. pylori TrxR activity, insulin reduction assay. Particulars: 4, 20, and 40 μM.
Assay [1] deals with T1, E. coli TrxR (Escherichia coli, UniProt P0A9P4). The assay is described as follows: Kinetic parameters (substrate) with E. coli TrxR. In kind it is biochemical.
T1 sequence (P0A9P4 whole entry): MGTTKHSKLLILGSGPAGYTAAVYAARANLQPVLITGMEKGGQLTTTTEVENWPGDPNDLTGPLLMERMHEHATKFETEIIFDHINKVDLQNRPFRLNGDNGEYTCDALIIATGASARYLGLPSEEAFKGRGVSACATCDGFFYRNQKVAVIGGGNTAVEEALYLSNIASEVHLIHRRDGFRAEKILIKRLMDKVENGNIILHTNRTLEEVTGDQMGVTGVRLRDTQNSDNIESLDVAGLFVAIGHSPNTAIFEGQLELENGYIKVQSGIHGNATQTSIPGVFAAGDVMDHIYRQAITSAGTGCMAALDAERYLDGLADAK
Assay [2] has as its target T2, Mammalian TrxR (Homo sapiens, UniProt Q16881).
T2 sequence (Q16881 151-649 limits assumed): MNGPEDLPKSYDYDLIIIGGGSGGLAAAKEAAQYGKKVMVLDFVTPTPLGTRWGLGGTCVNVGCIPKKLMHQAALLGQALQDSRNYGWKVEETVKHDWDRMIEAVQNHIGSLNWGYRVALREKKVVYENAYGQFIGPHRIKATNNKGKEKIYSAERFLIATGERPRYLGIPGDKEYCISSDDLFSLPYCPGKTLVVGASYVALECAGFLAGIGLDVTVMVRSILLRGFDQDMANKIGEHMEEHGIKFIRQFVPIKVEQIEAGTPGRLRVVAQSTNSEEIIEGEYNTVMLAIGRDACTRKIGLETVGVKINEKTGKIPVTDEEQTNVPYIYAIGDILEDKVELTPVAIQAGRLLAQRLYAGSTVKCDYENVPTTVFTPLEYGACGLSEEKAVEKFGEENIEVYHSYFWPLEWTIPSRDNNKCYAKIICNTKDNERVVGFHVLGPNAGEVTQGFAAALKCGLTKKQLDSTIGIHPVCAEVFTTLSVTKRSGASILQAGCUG
Put plainly: Kinetic parameters with mammalian TrxR. Particulars: sulphur analogues. In kind it is biochemical.

Assay [3] concerns the target T1, E. coli TrxR. Put plainly: E. coli TrxR inhibition, thioredoxin dependent DTNB reduction assay. In kind it is biochemical. Particulars: for IC50: DTNB assay, 100 nM TrxR, 2 μM Trx, 240 μM NADPH, 1 mM DTNB, read-out: IC50 for E. coli TrxR; for Ki: Dixon plot, 6 nM TrxR, Trx 1, 2 or 4 μM, read-out: Ki for E. coli TrxR. On the procedure:
Further we examined the effect of ebselen in the reduction of disulfide by E. coli Trx and TrxR using both DTNB and insulin as substrates.
All the benzisoselenazol-3(2H)-one and bisbenzisoselenazol-3(2H)-one derivatives were tested as potential E. coli TrxR inhibitors by standard DTNB assay. […] The reactions were started by adding 1 mM DTNB to the mixture of 100 nM TrxR, 2 μM Trx, 240 μM NADPH, and different concentration of inhibitor (1-40 μM). […] The reactions were started by adding 6 nM TrxR at room temperature. Inhibition constants (Ki) for all the compounds were measured from Dixon plot, which plots 1/v versus […], I=Inhibitor concentration).

Another assay relates to E. coli. In kind it is cell-based, Escherichia coli.
For another assay, the system named is Staphylococcus aureus. Particulars: ref (10); cited from earlier work.
The subject of the next assay is H. pylori strains. The assay is described as follows: MIC against H. pylori strains.
Assay [4] addresses T2, Mammalian TrxR. Particulars: from ref (3) / (32); cited from earlier work.
Assay [5] addresses T1, E. coli TrxR. Put plainly: E. coli TrxR inhibition, thioredoxin dependent DTNB reduction assay. In kind it is biochemical. Particulars: Lineweaver-Burk plots, reduction of DTNB; read-out: Ki (dissociation constant of inhibitor-TrxR complex), competitive inhibition of E. coli TrxR.
Another assay addresses E. coli Trx-(SH)2 (Escherichia coli, UniProt P0AA25). The conditions noted are these: fluorescence spectroscopy, ref (32); cited from earlier work.
Assay [6] in a line: Glutathione peroxidase (GPx) activity of the compounds. In kind it is biochemical. Particulars: for Relative GPx activity: EbSe 6 = 1.
Another assay has as its system gshA^− DHB4 E. coli. Put plainly: Inhibition of bacterial growth (MIC), gshA^− DHB4 E. coli. The conditions noted are these: for MIC: Escherichia coli, read-out: MIC for gshA^− DHB4 E. coli.
A further assay has as its system HEK 293T cells. Put plainly: HEK 293T cells growth (cytotoxicity). In kind it is cell-based.
In the next assay the test system is wild type DHB4 E. coli. The assay is described as follows: Inhibition of bacterial growth (MIC), wild type DHB4 E. coli. The conditions noted are these: for MIC: Escherichia coli, DHB4E.COLI, read-out: MIC for wild type DHB4 E. coli.
The subject of another assay is Gor DHB4 E. coli. Put plainly: Inhibition of bacterial growth (MIC), Gor DHB4 E. coli. Particulars: for MIC: Escherichia coli, DHB4E.COLI, read-out: MIC for Gor DHB4 E. coli.
A further assay has as its target T3, recombinant rat TrxR (Rattus norvegicus, UniProt O89049).
T3 sequence (O89049 1-499): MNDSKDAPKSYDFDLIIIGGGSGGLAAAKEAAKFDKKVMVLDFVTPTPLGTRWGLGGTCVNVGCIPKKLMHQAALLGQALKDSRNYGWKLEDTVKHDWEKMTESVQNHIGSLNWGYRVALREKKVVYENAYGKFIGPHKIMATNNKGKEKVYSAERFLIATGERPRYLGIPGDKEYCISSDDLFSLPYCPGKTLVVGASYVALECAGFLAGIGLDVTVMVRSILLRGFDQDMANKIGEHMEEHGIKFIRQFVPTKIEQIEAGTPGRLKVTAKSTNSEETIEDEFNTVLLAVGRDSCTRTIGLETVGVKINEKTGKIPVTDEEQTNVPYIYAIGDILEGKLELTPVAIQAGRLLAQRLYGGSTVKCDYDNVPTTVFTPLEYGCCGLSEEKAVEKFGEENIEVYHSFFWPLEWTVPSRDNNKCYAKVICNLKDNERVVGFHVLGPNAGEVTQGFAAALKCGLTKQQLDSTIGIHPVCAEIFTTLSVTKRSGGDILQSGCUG
The assay is described as follows: Inhibition of mammalian (recombinant rat) TrxR.

Setting [7] is: Homo sapiens, HEK-293T; read-out: IG50 for HEK 293T.

Chain of H. pylori TrxR (P56431 whole entry): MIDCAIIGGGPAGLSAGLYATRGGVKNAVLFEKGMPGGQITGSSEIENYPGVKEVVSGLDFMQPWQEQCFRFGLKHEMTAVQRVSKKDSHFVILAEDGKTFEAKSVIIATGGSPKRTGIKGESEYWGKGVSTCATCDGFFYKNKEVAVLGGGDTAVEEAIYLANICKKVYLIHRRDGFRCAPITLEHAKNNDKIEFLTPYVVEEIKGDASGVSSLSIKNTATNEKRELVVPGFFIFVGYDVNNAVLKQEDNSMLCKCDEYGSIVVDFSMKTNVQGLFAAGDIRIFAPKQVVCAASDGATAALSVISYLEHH
Chain of E. coli Trx-(SH)2 (P0AA25 whole entry): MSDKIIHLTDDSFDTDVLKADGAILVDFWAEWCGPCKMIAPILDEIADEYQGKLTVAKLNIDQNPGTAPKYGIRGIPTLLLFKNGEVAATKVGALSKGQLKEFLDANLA
Description for Gor DHB4 E. coli: (§1) Here E. coli DHB4 strains wt, gshA^−, gor^−, oxyR^− were used as the model to test the antibiotics activity of these ebselen derivatives.
Description for gshA^− DHB4 E. coli: as §1
Description for wild type DHB4 E. coli: as §1

`O=c1c2ccccc2sn1-c1ccccc1` [EbS]: at H. pylori TrxR, the “H. pylori TrxR activity” value was “inhibited”. Besides, the “kcat, E. coli TrxR” value at E. coli TrxR [1] was found to be 11.7 s⁻¹. In addition, on Mammalian TrxR [2], the Km is 2.5 µM and the “kcat, mammalian TrxR” value turned out to be 23.33 s⁻¹. Also, the “inhibition of E. coli TrxR (in words)” value on E. coli TrxR [3] was “not inhibitors”. In addition, the “enhancement of the toxicity of silver toward bacteria” value with E. coli is listed as “less enhancement”. The “antibacterial activity (in words)” value in the assay with Staphylococcus aureus is listed as “lost the antibacterial activity”. In the assay on H. pylori strains (NCTC11637 strain), the MIC was determined as 1.56 µg/mL (≈ 6.86 µM). The MIC in the assay with H. pylori strains (strain YS-16) was 0.39 µg/mL (≈ 1.72 µM).

`Cc1ncc([N+](=O)[O-])n1CCO` [metronidazole]: the MIC against H. pylori strains (Helicobacter pylori) is 6.25 µg/mL (≈ 36.5 µM); with H. pylori strains (Helicobacter pylori, NCTC11637), 0.78 µg/mL (≈ 4.56 µM).

`O=[N+]([O-])[O-].[Ag+]` [silver, Silver nitrate]: in the assay with E. coli (16 h), the “MIC, silver alone” value is given as “about 42 μM”. The MIC for silver in the assay with E. coli (in the presence of 2 μM ebselen, 16 h) is 8.4 µM. Further, the “silver concentration that inhibited E. coli growth” value in the assay on E. coli (in the presence of 8 μM ebselen, 16 h) is 1 µM.

For `O=C(Nc1ccccc1)c1ccccc1[Se][Se]c1ccccc1C(=O)Nc1ccccc1` [(EbSe)2], at Mammalian TrxR [4], the Km was 40 µM and the “kcat, mammalian TrxR” value was 1.32 s⁻¹. Also, the “inhibition of E. coli TrxR (in words)” value against E. coli TrxR [3] was “strongly inhibited”. Further, the Ki at E. coli TrxR [5] was found to be 0.46 ± 0.05 µM. Moreover, the “second-order rate constant of direct reduction by reduced E. coli Trx” value on E. coli Trx-(SH)2 is 1700 M⁻¹ s⁻¹.

Take `Cc1cc(Cl)ccc1-n1[se]c2ccccc2c1=O` [EbSe 8]: the “Relative GPx activity” value in assay [6] amounted to 0.67. Further, the minimum inhibitory concentration (MIC) in the assay on gshA^− DHB4 E. coli stood at 13 µM (≈ 4.19 µg/mL); in the assay on wild type DHB4 E. coli, 47 µM (≈ 15.2 µg/mL); in the assay with Gor DHB4 E. coli, 24 µM (≈ 7.74 µg/mL). Moreover, the results for the IC50 in the assay on HEK 293T cells (setting [7]), on E. coli TrxR [3] and at recombinant rat TrxR were 80 µM, 6 µM and more than 10 µM, respectively. Besides, at E. coli TrxR [3], the inhibition constant (Ki) was 0.25 µM.

As to `O=C(Nc1ccccc1)c1ccccc1SSc1ccccc1C(=O)Nc1ccccc1` [(EbS)2], on E. coli TrxR [1], the Km is 27.6 µM and the “kcat, E. coli TrxR” value came to 1.67 s⁻¹. For the same molecule, on Mammalian TrxR [2], the Michaelis constant (Km) came out at 47 µM and the “kcat, mammalian TrxR” value came out at 25 s⁻¹.

On to `O=c1c2ccccc2[se]n1-c1ccncc1` [EbSe 13], for which the “Relative GPx activity” value in assay [6] turned out to be 1.4. Further, the values for the MIC in the assay with gshA^− DHB4 E. coli, with wild type DHB4 E. coli and in the assay on Gor DHB4 E. coli were 21 µM (≈ 5.78 µg/mL), 45 µM (≈ 12.4 µg/mL) and 24 µM (≈ 6.6 µg/mL), respectively. The results for the IC50 with HEK 293T cells (setting [7]), at E. coli TrxR [3] and on recombinant rat TrxR were 60 µM, 3 µM and more than 10 µM, respectively. The Ki on E. coli TrxR [3] was 1.5 µM.

With `O=c1c2ccccc2[se]n1-c1ccccc1[N+](=O)[O-]` [EbSe 12], in assay [6], the “GPx activity (in words)” value was “no GPx activity” and the “Relative GPx activity” value was determined as 0.93. Moreover, in the assay on gshA^− DHB4 E. coli, the “MIC for gshA^− DHB4 E. coli” value was “No Inhibition”. Also, in the assay with gshA^− DHB4 E. coli (E. coli strains wt, gshA^−, gor^−), the “sensitivity of gshA^− / gor^− strains compared with wild type” value is “same sensitivity”. The IC50 with HEK 293T cells (Homo sapiens, HEK-293T, read-out: IG50 for HEK 293T) is 80 µM. Besides, at E. coli TrxR [3], the IC50 is 3 µM and the Ki came out at 0.25 µM. Moreover, in the assay with wild type DHB4 E. coli, the “MIC for wild type DHB4 E. coli” value was “No Inhibition”. Further, in the assay with Gor DHB4 E. coli, the “MIC for Gor DHB4 E. coli” value is reported as “No Inhibition”. The IC50 on recombinant rat TrxR is more than 10 µM.

The values are drawn from US11013730B1, “Composition comprising selenazol or thiazalone derivatives and silver and method of treatment therewith” (Thioredoxin Systems AB, priority 2014, dated 2021).
